Laboratory results: ChEMBL document CHEMBL3861969, “Acredinone C and the Effect of Acredinones on Osteoclastogenic and Osteoblastogenic Activity” (J Nat Prod, 2016)
Activity calls are given as the source filed them. The rule behind the calls is not given here.

Columns and labels:
[1] = test system: C2C12; assay: Increase in BMP2-induced BMP2 protein expression in mouse C2C12 cells assessed as ration of BMP2 to actin at 10 uM measured on day 3 by Western blot analysis (reference value: 1.4); assay type: functional
[2] = target: T1, SMAD1/5/9 (Mus musculus) (UniProt P70340+P97454+Q9JIW5); assay: Activation of Smad1/5/8 in mouse C2C12 cells assessed as increase in BMP2-stimulated OPN mRNA expression at 10 uM preincubated with cells followed by BMP2 addition after 3 days by real-time PCR analysis; assay type: cell-based
[3] = test system: BMDM; assay: Inhibition of RANKL-induced NFATc1 mRNA expression in mouse BMDM cells at 10 uM preincubated with cells followed by RANKL addition measured after 2 days by real-time PCR analysis; assay type: functional, cell-based
[4] = test system: C2C12; assay: Induction of osteoblast differentiation in mouse C2C12 cells assessed as increase in BMP2-induced ALP activity preincubated with cells after 3 days using p-nitrophenyl phosphate as substrate; assay type: functional, cell-based
[5] = test system: C2C12; assay: Induction of BMP2-induced osteoblast differentiation in mouse C2C12 cells assessed as increase in ALP mRNA expression at 10 uM preincubated with cells followed by BMP2 addition measured after 3 days by real-time PCR analysis; assay type: functional, cell-based
[6] = test system: BMDM; assay: Inhibition of RANKL-induced cathespin K mRNA expression in mouse BMDM cells at 10 uM preincubated with cells followed by RANKL addition measured after 2 days by real-time PCR analysis; assay type: functional, cell-based
[7] = Inhibition of RANKL-induced NFATc1 expression in mouse BMDM cells assessed as ratio of NFATc1 to actin at 10 uM preincubated with cells followed RANKL/M-CSF addition measured after 1day by Western blot analysis (reference value: 281); assay type: functional
[8] = test system: C2C12; assay: Increase in BMP2-induced BMP4 mRNA expression in mouse C2C12 cells at 10 uM measured on day 3 by real-time PCR analysis; assay type: functional, cell-based
[9] = target: Mitogen-activated protein kinase 3 (Mus musculus) (UniProt Q63844); assay: Inhibition of RANKL-induced ERK1 phosphorylation in mouse BMDM cells assessed as ratio of phosphorylated ERK1 to ERK1 at 10 uM preincubated for 5 mins followed RANKL/M-CSF addition for 5 mins by Western blot analysis (reference value: 2.9); assay type: cell-based
Chain of Mitogen-activated protein kinase 3 (Mus musculus) (Q63844 whole entry): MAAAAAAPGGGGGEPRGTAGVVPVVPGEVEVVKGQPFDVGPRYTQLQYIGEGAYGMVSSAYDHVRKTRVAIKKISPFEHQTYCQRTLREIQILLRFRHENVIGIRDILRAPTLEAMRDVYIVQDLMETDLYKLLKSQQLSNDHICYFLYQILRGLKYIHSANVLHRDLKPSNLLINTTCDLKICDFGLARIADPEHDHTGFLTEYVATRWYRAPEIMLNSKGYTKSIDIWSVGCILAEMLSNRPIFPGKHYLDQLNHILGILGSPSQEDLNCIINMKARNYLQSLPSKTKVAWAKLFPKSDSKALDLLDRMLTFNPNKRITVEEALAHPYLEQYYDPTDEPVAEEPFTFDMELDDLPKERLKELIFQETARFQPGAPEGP

[10] = Inhibition of RANKL-induced c-Fos expression in mouse BMDM cells assessed as ratio of c-Fos to actin at 10 uM preincubated with cells followed RANKL/M-CSF addition measured after 1 day by Western blot analysis (reference value: 6.4); assay type: functional
[11] = target: MAP kinase p38 (Mus musculus) (UniProt P47811+O08911+Q9WUI1+Q9Z1B7); assay: Inhibition of RANKL-induced p38 phosphorylation in mouse BMDM cells assessed as ratio of phosphorylated p38 to p38 at 10 uM preincubated for 5 mins followed RANKL/M-CSF addition for 5 mins by Western blot analysis (reference value: 24.7); assay type: cell-based
[12] = target: Mitogen-activated protein kinase 9 (Mus musculus) (UniProt Q9WTU6); assay: Inhibition of RANKL-induced JNK2 phosphorylation in mouse BMDM cells assessed as ratio of phosphorylated JNK2 to JNK2 at 10 uM preincubated for 5 mins followed RANKL/M-CSF addition for 5 mins by Western blot analysis (reference value: 5.2); assay type: cell-based
Chain of Mitogen-activated protein kinase 9 (Mus musculus) (Q9WTU6 whole entry): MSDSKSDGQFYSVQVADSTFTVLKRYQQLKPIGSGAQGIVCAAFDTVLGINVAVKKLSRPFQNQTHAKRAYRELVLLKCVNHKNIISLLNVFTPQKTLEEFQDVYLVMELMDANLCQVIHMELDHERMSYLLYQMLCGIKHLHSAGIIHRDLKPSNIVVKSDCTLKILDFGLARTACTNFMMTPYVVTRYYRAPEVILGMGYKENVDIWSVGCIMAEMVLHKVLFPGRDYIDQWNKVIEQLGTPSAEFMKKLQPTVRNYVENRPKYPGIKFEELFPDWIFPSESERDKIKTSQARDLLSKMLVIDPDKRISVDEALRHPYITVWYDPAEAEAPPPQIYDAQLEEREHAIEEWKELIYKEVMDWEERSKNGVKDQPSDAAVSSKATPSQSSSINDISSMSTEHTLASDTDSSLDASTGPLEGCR

[13] = test system: C2C12; assay: Increase in BMP2-induced BMP7 protein expression in mouse C2C12 cells assessed as ratio of BMP7 to actin at 10 uM measured on day 6 by Western blot analysis (reference value: 2.4); assay type: functional
[14] = test system: BMDM; assay: Inhibition of RANKL-induced mouse BMDM cell differentiation assessed as TRAP-positive MNCs at 0.1 to 10 uM preincubated for 5 mins followed by RANKL/M-CSF addition measured after 4 days by TRAP-staining based assay; assay type: functional
[15] = target: T1, SMAD1/5/9 (Mus musculus); assay: Activation of Smad1/5/8 in mouse C2C12 cells assessed as increase in BMP2-stimulated Runx2 mRNA expression at 10 uM preincubated with cells followed by BMP2 addition after 3 days by real-time PCR analysis; assay type: cell-based
[16] = species on record: Mus musculus; assay: Cytotoxicity against mouse BMDM cells assessed as reduction in cell viability up to 10 uM after 3 days in presence of M-CSF by CCK-8 assay; assay type: toxicity, cell-based; conditions: 72 h
[17] = target: T1, SMAD1/5/9 (Mus musculus); assay: Increase in BMP2-induced Smad1/5/8 phosphorylation in mouse C2C12 cells assessed as ratio of phosphorylated Smad1/5/8 to Smad1/5/8 in nuclear fraction at 10 uM preincubated with cells followed by BMP2 addition for 4 hrs by Western blot analysis (reference value: 1.2); assay type: cell-based
[18] = target: T2, NF-kappa-B inhibitor alpha (Mus musculus) (UniProt Q9Z1E3); assay: Inhibition of RANKL-induced IkBalpha phosphorylation in mouse BMDM cells at 10 uM preincubated for 5 mins followed RANKL/M-CSF addition for 5 mins by Western blot analysis; assay type: cell-based
T2 sequence (whole entry): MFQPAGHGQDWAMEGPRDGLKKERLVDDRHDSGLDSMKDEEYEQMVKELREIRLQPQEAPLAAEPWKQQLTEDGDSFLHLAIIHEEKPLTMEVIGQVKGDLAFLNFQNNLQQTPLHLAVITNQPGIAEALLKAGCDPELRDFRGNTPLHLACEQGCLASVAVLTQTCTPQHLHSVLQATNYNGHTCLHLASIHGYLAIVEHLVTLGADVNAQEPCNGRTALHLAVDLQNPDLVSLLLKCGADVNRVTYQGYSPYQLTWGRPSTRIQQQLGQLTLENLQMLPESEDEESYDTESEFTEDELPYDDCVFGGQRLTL

[19] = target: T1, SMAD1/5/9 (Mus musculus); assay: Increase in BMP2-induced Smad1/5/8 nuclear translocation in mouse C2C12 cells assessed as ratio of Smad1/5/8 to lamin B1 in nuclear fraction at 10 uM preincubated with cells followed by BMP2 addition for 4 hrs by Western blot analysis (reference value: 1.5); assay type: cell-based
[20] = test system: Mus musculus; assay: Osteogenic activity in ICR mouse calvarial bone implanted with collagen sponges containing 10 mM compound incubated for 2 weeks assessed as increase in woven bone formation near periosteum of the calvarial bone by hematoxylin and eosin staining based assay relative to control; assay type: functional
[21] = species on record: Mus musculus; assay: Cytotoxicity against mouse C2C12 cells assessed as reduction cell viability after 3 days in presence of BMP2 by CCK-8 assay; assay type: toxicity, cell-based; conditions: c2c12, 72 h
[22] = test system: BMDM; assay: Inhibition of RANKL-induced c-Src mRNA expression in mouse BMDM cells at 10 uM preincubated with cells followed by RANKL addition measured after 2 days by real-time PCR analysis; assay type: functional, cell-based
[23] = test system: BMDM; assay: Inhibition of RANKL-induced DC-STAMP mRNA expression in mouse BMDM cells at 10 uM preincubated with cells followed by RANKL addition measured after 2 days by real-time PCR analysis; assay type: functional, cell-based
[24] = test system: C2C12; assay: Increase in BMP2-induced BMP9 mRNA expression in mouse C2C12 cells at 10 uM measured on day 3 by real-time PCR analysis; assay type: functional, cell-based
[25] = target: Mitogen-activated protein kinase 8 (Mus musculus) (UniProt Q91Y86); assay: Inhibition of RANKL-induced JNK1 phosphorylation in mouse BMDM cells assessed as ratio of phosphorylated JNK1 to JNK1 at 10 uM preincubated for 5 mins followed RANKL/M-CSF addition for 5 mins by Western blot analysis (reference value: 3.7); assay type: cell-based
Chain of Mitogen-activated protein kinase 8 (Mus musculus) (Q91Y86 whole entry): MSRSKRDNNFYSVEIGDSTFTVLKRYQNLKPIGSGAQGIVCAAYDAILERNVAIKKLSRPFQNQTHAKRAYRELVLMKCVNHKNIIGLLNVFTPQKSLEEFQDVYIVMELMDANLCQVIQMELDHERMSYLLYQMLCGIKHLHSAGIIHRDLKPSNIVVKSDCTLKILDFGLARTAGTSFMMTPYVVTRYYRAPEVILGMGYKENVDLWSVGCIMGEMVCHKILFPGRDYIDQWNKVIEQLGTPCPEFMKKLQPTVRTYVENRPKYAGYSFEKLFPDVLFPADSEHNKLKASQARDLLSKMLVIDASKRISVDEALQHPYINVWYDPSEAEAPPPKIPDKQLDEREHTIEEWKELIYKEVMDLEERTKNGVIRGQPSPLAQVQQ

Question: With `COc1cccc(OC)c1C(=O)c1c(O)cc(C)c(OC)c1C1=C(c2c(OC)cccc2OC)c2c(O)cc(C)c(OC)c2C1=O` as the compound, how does the “fold change (FC)” value [1] read?
Answer: 3.8

Question: What about the Activity [2] of the same compound?
Answer: Active

Question: What about the inhibition [3] of the same compound?
Answer: Active

Question: What about the Activity [4] of the same compound?
Answer: Dose-dependent effect

Question: What about the Activity [5] of the same compound?
Answer: Active

Question: And the inhibition [6]?
Answer: Active

Question: And the “fold change (FC)” value [7]?
Answer: 175

Question: And the Activity [8]?
Answer: Active

Question: What about the fold change (FC) [9] of the same compound?
Answer: 3.2

Question: And the “fold change (FC)” value [10]?
Answer: 5.5

Question: What about the fold change (FC) [11] of the same compound?
Answer: 13.2

Question: And the fold change (FC) [12]?
Answer: 4.3

Question: And the “fold change (FC)” value [13]?
Answer: 3.1

Question: And the inhibition [14]?
Answer: Active

Question: And the Activity [15]?
Answer: Active

Question: And the Activity [16]?
Answer: Non-Toxic

Question: And the fold change (FC) [17]?
Answer: 1.7

Question: And the inhibition [18]?
Answer: Active

Question: And the fold change (FC) [19]?
Answer: 2.4

Question: What about the Activity [20] of the same compound?
Answer: Active

Question: What about the Activity [21] of the same compound?
Answer: Non-Toxic

Question: And the inhibition [22]?
Answer: Active

Question: What about the inhibition [23] of the same compound?
Answer: Active

Question: And the Activity [24]?
Answer: Active

Question: What about the fold change (FC) [25] of the same compound?
Answer: 2.9
